Results on 27 compounds are retold here after patent publication US8986994B2, “Substituted pyridines and pyrimidines” (Technische Universitaet Wien, priority 2009, dated 2015).

One data set relates to ANF (P19 cells). Put plainly: ANF promoter luciferase reporter assay in P19 cells. It counts as cell-based, mouse. The settings on record: Mus musculus, read-out: ANF activity.
A further data set deals with Nkx2.5 (P19 cells). Put plainly: Nkx2.5 luciferase reporter assay in P19 cells. It counts as cell-based. The following applies: Mus musculus, read-out: Nkx2.5 activity. In general terms: A reporter such as luciferase makes a cellular process visible.
The subject of a further data set is TOPflash (C2C12 cells). Put plainly: TOPflash luciferase reporter assay in C2C12 cells. It counts as cell-based. The settings on record: Mus musculus, read-out: TOPflash activity.
The next data set has as its system TOPflash (P19 cells). Put plainly: TOPflash luciferase reporter assay in P19 cells. It counts as cell-based. The settings on record: Mus musculus, read-out: TOPflash activity.
A further data set deals with ANF (C2C12 cells). Put plainly: ANF promoter luciferase reporter assay in C2C12 cells. It counts as cell-based, mouse. The settings on record: for luciferase signal in all three reporter assays: ANF, TOPflash and Nkx2.5 reporter assays together; for fold induction at 1 µM: Mus musculus, read-out: ANF activity.
Another data set relates to Nkx2.5 (C2C12 cells). As to the kind of experiment: Nkx2.5 luciferase reporter assay in C2C12 cells. The format is cell-based. The settings on record: Mus musculus, read-out: Nkx2.5 activity.
[1] abbreviates: 192 h, P19 cells, 1 μM for 8 days, luciferase signal vs control (untreated cells).
Setting [2] is: 192 h, C2C12 cells, 1 μM for 8 days, luciferase signal vs control (untreated cells).

Like-named read-outs stand apart in the source and are kept apart here. Bounds are passed on as bounds.

Consider `COc1ccc(Nc2cc(NCC(=O)O)ncn2)cc1` [example 14, 2-(6-(4-Methoxyphenylamino)pyrimidin-4-ylamino)acetic acid], for which the fold induction at 1 µM with ANF (P19 cells) (P19, 192 h) was greater than 2.

As to `COc1ccc(Nc2cc(NC(C)(C)C)ncn2)cc1` [example 20, N^4-tert-Butyl-N^6-(4-methoxyphenyl)pyrimidine-4,6-diamine], the fold induction at 1 µM in the data set on ANF (P19 cells) (P19, 192 h) was greater than 2.

For `COCCNc1cc(Nc2cccc(Cl)c2)ncn1` [example 27, N^4-(3-Chlorophenyl)-N^6-(2-methoxyethyl)pyrimidine-4,6-diamine], the fold induction at 1 µM in the data set with ANF (P19 cells) (P19, 192 h) was less than 1.3; in the data set on Nkx2.5 (P19 cells) (P19, 192 h) it was less than 1.3.

Take `COc1ccc(Nc2cccc(NCCCO)n2)cc1` [example 43, 3-(6-(4-Methoxyphenylamino)pyridin-2-ylamino)propan-1-ol]: the fold induction at 1 µM in the data set with ANF (P19 cells) (setting [1]) is 1.3 to 2; in the data set on TOPflash (C2C12 cells) (setting [2]) it was 1.3 to 2; with TOPflash (P19 cells) (setting [1]), 1.3 to 2; in the data set with Nkx2.5 (P19 cells) (setting [1]), less than 1.3; with ANF (C2C12 cells) (setting [2]), 1.3 to 2; in the data set on Nkx2.5 (C2C12 cells) (setting [2]) it was 1.3 to 2. The “luciferase signal in all three reporter assays” value in the data set with ANF (C2C12 cells) (C2C12 cells, 1 μM for 8 days) is “increase in the luciferase signal in all three reporter assays”.

Regarding `COc1ccc(Nc2cc(N3CCOCC3)ncn2)cc1` [example 15, N-(4-Methoxyphenyl)-6-morpholinopyrimidin-4-amine], the fold induction at 1 µM in the data set with ANF (P19 cells) (setting [1]) was greater than 2.

Turning to `COc1ccc(Nc2cc(NC3CCCC3)ncn2)cc1` [example 18, N^4-Cyclopentyl-N^6-(4-methoxyphenyl)pyrimidine-4,6-diamine], the fold induction at 1 µM with ANF (P19 cells) (P19, 192 h) is greater than 2.

For the compound `COc1ccc(Nc2cc(N(C)CCO)ncn2)cc1` [example 16, 2-((6-(4-Methoxyphenylamino)pyrimidin-4-yl)(methyl)amino)ethan-1-ol], the fold induction at 1 µM in the data set with ANF (P19 cells) (P19, 192 h) is greater than 2.

For the compound `COc1ccc(N(C)c2cc(NCCO)ncn2)cc1` [example 38, 2-(6-((4-Methoxyphenyl)(methyl)amino)pyrimidin-4-ylamino)ethan-1-ol], the fold induction at 1 µM with ANF (P19 cells) (setting [1]) is greater than 2.

Consider `OCCNc1cccc(Nc2ccc(Oc3ccccc3)cc2)n1` [example 44, 2-(6-(4-Phenoxyphenylamino)pyridin-2-ylamino)ethan-1-ol], for which the fold induction at 1 µM with ANF (P19 cells) (setting [1]) is 1.3 to 2; in the data set with TOPflash (C2C12 cells) (setting [2]) it was less than 1.3; in the data set on TOPflash (P19 cells) (setting [1]), less than 1.3; in the data set with Nkx2.5 (P19 cells) (setting [1]), less than 1.3; in the data set on ANF (C2C12 cells) (setting [2]), less than 1.3; in the data set with Nkx2.5 (C2C12 cells) (setting [2]), 1.3 to 2.

Regarding `O=[N+]([O-])c1ccc(Nc2cc(NCCO)ncn2)cc1` [example 30, 2-(6-(4-Nitrophenylamino)pyrimidin-4-ylamino)ethan-1-ol], the fold induction at 1 µM in the data set with ANF (P19 cells) (setting [1]) and with Nkx2.5 (P19 cells) (setting [1]) was less than 1.3 in each case.

As to `OCCCNc1cccc(Nc2ccc(Oc3ccccc3)cc2)n1` [example 45, 3-(6-(4-Phenoxyphenylamino)pyridin-2-ylamino)propan-1-ol], the fold induction at 1 µM is less than 1.3 in the data set on ANF (P19 cells) (setting [1]); 1.3 to 2 with TOPflash (C2C12 cells) (setting [2]); less than 1.3 in the data set with TOPflash (P19 cells) (setting [1]); less than 1.3 in the data set with Nkx2.5 (P19 cells) (setting [1]); less than 1.3 in the data set on ANF (C2C12 cells) (setting [2]); less than 1.3 in the data set with Nkx2.5 (C2C12 cells) (setting [2]).

Consider `COc1cccc(Nc2cc(NCCO)ncn2)c1` [example 22, 2-(6-(3-Methoxyphenylamino)pyrimidin-4-ylamino)ethan-1-ol], for which the fold induction at 1 µM in the data set with ANF (P19 cells) (setting [1]) was less than 1.3; with TOPflash (C2C12 cells) (setting [2]) it was 1.3 to 2; with TOPflash (P19 cells) (setting [1]), less than 1.3; with Nkx2.5 (P19 cells) (setting [1]), less than 1.3; in the data set with ANF (C2C12 cells) (setting [2]), 1.3 to 2; in the data set on Nkx2.5 (C2C12 cells) (setting [2]) it was less than 1.3.

Broadly, the melting point is the temperature, or range, at which the solid turns liquid. `OCCNc1cc(Nc2ccc(Cl)cc2)ncn1` [example 24, 2-(6-(4-Chlorophenylamino)pyrimidin-4-ylamino)ethan-1-ol] registered a melting point of 183 °C. Further, the fold induction at 1 µM with ANF (P19 cells) (setting [1]) was in the range of 1.3 to 2. The fold induction at 1 µM with Nkx2.5 (P19 cells) (setting [1]) was in the range of 1.3 to 2.

Consider `OCCNc1cc(Nc2cccc(F)c2)ncn1` [example 32, 2-(6-(3-Fluorophenylamino)pyrimidin-4-ylamino)ethan-1-ol], for which the fold induction at 1 µM in the data set with ANF (P19 cells) (setting [1]) and with Nkx2.5 (P19 cells) (setting [1]) was less than 1.3 throughout.

Turning to `OCCNc1cc(Nc2cccc(Br)c2)ncn1` [example 33, 2-(6-(3-Bromophenylamino)pyrimidin-4-ylamino)ethan-1-ol], the fold induction at 1 µM in the data set with ANF (P19 cells) (setting [1]) was less than 1.3; with Nkx2.5 (P19 cells) (setting [1]) it was 1.3 to 2.

As for `OCCNc1cc(Nc2cccc(Cl)c2)ncn1` [example 25, 2-(6-(3-Chlorophenylamino)pyrimidin-4-ylamino)ethan-1-ol], the results for the fold induction at 1 µM in the data set with ANF (P19 cells) (setting [1]) and in the data set with Nkx2.5 (P19 cells) (setting [1]) were greater than 2 and 1.3 to 2, respectively.

Turning to `OCCCNc1cc(Nc2cccc(Cl)c2)ncn1` [example 31, 3-(6-(3-Chlorophenylamino)pyrimidin-4-ylamino)propan-1-ol], the fold induction at 1 µM in the data set with ANF (P19 cells) (P19, 192 h) was in the range of 1.3 to 2; with Nkx2.5 (P19 cells) (P19, 192 h), 1.3 to 2.

For `OCCNc1cc(NC2CCCCC2)ncn1` [example 39, 2-(6-(Cyclohexylamino)pyrimidin-4-ylamino)ethan-1-ol], the fold induction at 1 µM in the data set on ANF (P19 cells) (P19, 192 h) is less than 1.3.

With `CCC(C)Nc1cc(Nc2ccc(OC)cc2)ncn1` (stereo not shown) [example 19, N^4-sec-Butyl-N^6-(4-methoxyphenyl)pyrimidine-4,6-diamine], the fold induction at 1 µM in the data set on ANF (P19 cells) (setting [1]) and with Nkx2.5 (P19 cells) (setting [1]) was less than 1.3 in each case.

For the compound `Clc1cccc(Nc2cc(NC3CCCCC3)ncn2)c1` [example 26, N^4-(3-Chlorophenyl)-N^6-cyclohexylpyrimidine-4,6-diamine], the fold induction at 1 µM is greater than 2 in the data set on ANF (P19 cells) (P19, 192 h) and greater than 2 in the data set with Nkx2.5 (P19 cells) (P19, 192 h).

With `CCOC(=O)c1ccc(Nc2cc(NCCO)ncn2)cc1` [example 34, Ethyl 4-(6-(2-hydroxyethylamino)pyrimidin-4-ylamino)benzoate], the fold induction at 1 µM in the data set on ANF (P19 cells) (setting [1]) and in the data set on Nkx2.5 (P19 cells) (setting [1]) was less than 1.3 in each case.

On to `COCCNc1cc(Nc2ccc(OC)cc2)ncn1` [example 13, N^4-(2-Methoxyethyl)-N^6-(4-methoxyphenyl)pyrimidine-4,6-diamine], for which the fold induction at 1 µM in the data set on ANF (P19 cells) (P19, 192 h) was in the range of 1.3 to 2.

On to `COc1ccc(Nc2cc(NC34CC5CC(CC(C5)C3)C4)ncn2)cc1` [example 21, N^4-Adamant-1-yl-N^6-(4-methoxyphenyl)pyrimidine-4,6-diamine], for which the fold induction at 1 µM in the data set on ANF (P19 cells) (P19, 192 h) was greater than 2.

As for `COc1ccc(Nc2cc(NC(C)C)ncn2)cc1` [example 12, N^4-(2-Propyl)-N^6-(4-methoxyphenyl)pyrimidine-4,6-diamine], the fold induction at 1 µM in the data set on ANF (P19 cells) (P19, 192 h) is less than 1.3; with TOPflash (C2C12 cells) (C2C12, 192 h), 1.3 to 2; in the data set on TOPflash (P19 cells) (P19, 192 h) it was less than 1.3; in the data set with Nkx2.5 (P19 cells) (P19, 192 h), 1.3 to 2; with ANF (C2C12 cells) (C2C12, 192 h), 1.3 to 2; in the data set with Nkx2.5 (C2C12 cells) (C2C12, 192 h), 1.3 to 2. Besides, the “luciferase signal in all three reporter assays” value in the data set with ANF (C2C12 cells) (C2C12 cells, 1 μM for 8 days) is recorded as “increase in the luciferase signal in all three reporter assays”.

Regarding `OCCNc1cc(Nc2ccccc2)ncn1` [example 23, 2-(6-(Phenylamino)pyrimidin-4-ylamino)ethan-1-ol], the fold induction at 1 µM in the data set with ANF (P19 cells) (setting [1]) and in the data set with Nkx2.5 (P19 cells) (setting [1]) was less than 1.3 in each case.

Turning to `CCCCNc1cc(Nc2ccc(OC)cc2)ncn1` [example 17, N^4-Butyl-N^6-(4-methoxyphenyl)pyrimidine-4,6-diamine], the fold induction at 1 µM with ANF (P19 cells) (setting [1]) is greater than 2.

For `COc1cccc(Nc2cc(NC3CCCCC3)ncn2)c1` [example 37, N^4-Cyclohexyl-N^6-(3-methoxyphenyl)pyrimidine-4,6-diamine], the fold induction at 1 µM in the data set on ANF (P19 cells) (P19, 192 h) was 1.3 to 2; with Nkx2.5 (P19 cells) (P19, 192 h), greater than 2.
